Consider 22 compounds from PubChem BioAssay AID200 (DTP/NCI, 2004).

Where “and” joins values, the source holds several entries; their conditions need not be identical. Identical values can stand only once. Inconclusive results and toxic doses are left out.

The test relates to B6C3F1 mice, B16 melanoma ip, median survival T/C. Description: NCI In Vivo Anticancer Drug Screen. Data for tumor model B16 Melanoma (intraperitoneal) in B6C3F1 mice. Particulars: endpoint: median survival time, higher = longer survival. A digest of the protocol: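 Tumor-bearing mice received test compound; a separate group got vehicle only. Survival was then compared, with results reported as treated over control.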

The mark [1] stands for this setting: dose: 1.56 mg/kg/injection, schedule: Q01DX009 (ip), vehicle: saline with Tween-80.
Setting [2] is: dose: 3.12 mg/kg/injection, schedule: Q01DX009 (ip), vehicle: saline with Tween-80.
The mark [3] stands for this setting: dose: 12.5 mg/kg/injection, schedule: Q01DX009 (ip), vehicle: saline with Tween-80.
Setting [4] is: dose: 25.0 mg/kg/injection, schedule: Q01DX009 (ip), vehicle: saline with Tween-80.
Setting [5] is: dose: 50.0 mg/kg/injection, schedule: Q01DX009 (ip), vehicle: saline with Tween-80.
Setting [6] is: dose: 100.0 mg/kg/injection, schedule: Q01DX009 (ip), vehicle: saline with Tween-80.
The mark [7] stands for this setting: dose: 6.25 mg/kg/injection, schedule: Q01DX009 (ip), vehicle: saline with Tween-80.
The mark [8] stands for this setting: dose: 25.0 mg/kg/injection, schedule: Q01DX009 (ip), vehicle: saline.
Setting [9] is: dose: 50.0 mg/kg/injection, schedule: Q01DX009 (ip), vehicle: saline.
Setting [10] is: dose: 100.0 mg/kg/injection, schedule: Q01DX009 (ip), vehicle: saline.
Where [11] appears, read: dose: 200.0 mg/kg/injection, schedule: Q01DX009 (ip), vehicle: saline.
Setting [12] is: dose: 200.0 mg/kg/injection, schedule: Q01DX009 (ip), vehicle: saline with Tween-80.
[13] abbreviates: dose: 100.0 mg/kg/injection, schedule: Q01DX009 (ip), vehicle: Klucel (hydroxypropylcellulose) (HPC).

As to `COC(=Nc1ccccc1)SSC(C)C`, the T/C is 112 % of control (dose: 0.78 mg/kg/injection, schedule: Q01DX009 (ip), vehicle: saline with Tween-80); 116 % of control under setting [1]; 87 % of control under setting [2]; 86 % of control and 104 % of control under setting [3]; 87 % of control and 97 % of control under setting [4]; 88 % of control under setting [5]. In addition, under setting [6], the T/C is 102 % of control.
For the compound `C=C1C(C)C2C(Cc3ccccc3)NC(=O)C23C(OC(C)=O)/C=C/C(C)(O)CC(C)C/C=C/C3C1O` (stereo unspecified), the T/C runs as follows: (dose: 0.37 mg/kg/injection, schedule: Q01DX009 (ip), vehicle: Klucel (hydroxypropylcellulose) (HPC)) 112 % of control and 99 % of control; (dose: 0.75 mg/kg/injection, schedule: Q01DX009 (ip), vehicle: Klucel (hydroxypropylcellulose) (HPC)) 110 % of control and 100 % of control and 101 % of control; (dose: 1.5 mg/kg/injection, schedule: Q01DX009 (ip), vehicle: Klucel (hydroxypropylcellulose) (HPC)) 115 % of control and 98 % of control and 103 % of control; under setting [1], 124 % of control; (dose: 3.0 mg/kg/injection, schedule: Q01DX009 (ip), vehicle: Klucel (hydroxypropylcellulose) (HPC)) 112 % of control and 115 % of control and 105 % of control; (dose: 3.13 mg/kg/injection, schedule: Q01DX009 (ip), vehicle: saline with Tween-80) 111 % of control. Also, the T/C (dose: 6.0 mg/kg/injection, schedule: Q01DX009 (ip), vehicle: Klucel (hydroxypropylcellulose) (HPC)) was 103 % of control; the T/C under setting [7] is 113 % of control; the T/C (dose: 12.0 mg/kg/injection, schedule: Q01DX009 (ip), vehicle: Klucel (hydroxypropylcellulose) (HPC)) was 103 % of control.
Regarding `Cc1c2cc[n+](CCO)cc2c(C)c2c1[nH]c1ccc(O)cc12`, the T/C reads like this: (dose: 0.31 mg/kg/injection, schedule: Q01DX009 (ip), vehicle: saline) 113 % of control; (dose: 0.62 mg/kg/injection, schedule: Q01DX009 (ip), vehicle: saline) 91 % of control.
On to `COC1C(OC(=O)/C=C/C=C/C=C/C=C/C(=O)O)CCC2(CO2)C1C1(C)OC1CC=C(C)C` (stereo unspecified), for which the T/C under setting [8] was 117 % of control, the T/C under setting [9] is 113 % of control, the T/C under setting [10] is 119 % of control and the T/C under setting [11] is 113 % of control.
Consider `Nc1n[n+](-c2ccc(Cl)cc2)no1`, for which the T/C is, setting by setting: (dose: 3.12 mg/kg/injection, schedule: Q01DX009 (ip), vehicle: water) 109 % of control; (dose: 6.25 mg/kg/injection, schedule: Q01DX009 (ip), vehicle: water) 102 % of control and 107 % of control; (dose: 12.5 mg/kg/injection, schedule: Q01DX009 (ip), vehicle: water) 103 % of control; (dose: 25.0 mg/kg/injection, schedule: Q01DX009 (ip), vehicle: water) 111 % of control and 123 % of control; (dose: 50.0 mg/kg/injection, schedule: Q01DX009 (ip), vehicle: water) 116 % of control.
For the compound `O=C(O)CNc1ccc(O)cc1`, the T/C by setting is: under setting [8], 104 % of control; under setting [9], 105 % of control; (dose: 75.0 mg/kg/injection, schedule: Q01DX009 (ip), vehicle: saline) 105 % of control; under setting [10], 112 % of control and 121 % of control; (dose: 150.0 mg/kg/injection, schedule: Q01DX009 (ip), vehicle: saline) 105 % of control; under setting [11], 100 % of control and 101 % of control.
On to `CCC1=C(C)c2cc3[n-]c(cc4nc(cc5[n-]c(cc1n2)c(C)c5CCC(=O)OC)C(CCC(=O)OC)=C4C)c(C)c3CC.[Ni+2]`, for which the T/C by setting is: (dose: 2.4 mg/kg/injection, schedule: Q01DX009 (ip), vehicle: saline with Tween-80) 88 % of control; (dose: 4.7 mg/kg/injection, schedule: Q01DX009 (ip), vehicle: saline with Tween-80) 88 % of control; (dose: 9.4 mg/kg/injection, schedule: Q01DX009 (ip), vehicle: saline with Tween-80) 92 % of control.
Consider `C1CCN(c2c3c(nc4nnnn24)CCC3)CC1`, for which the T/C is, setting by setting: under setting [5], 91 % of control; under setting [6], 104 % of control; under setting [12], 92 % of control.
As to `O=C(O)C1CCCN1C(=O)OCC1c2ccccc2-c2ccccc21` (stereo unspecified), the T/C reads like this: under setting [13], 107 % of control; (dose: 200.0 mg/kg/injection, schedule: Q01DX009 (ip), vehicle: Klucel (hydroxypropylcellulose) (HPC)) 104 % of control.
Consider `CC(C)(C)OC(=O)NCCCCC(NC(=O)OCc1ccccc1)C(=O)O` (stereo unspecified), for which the T/C is, setting by setting: (dose: 25.0 mg/kg/injection, schedule: Q01DX009 (ip), vehicle: Klucel (hydroxypropylcellulose) (HPC)) 109 % of control; (dose: 50.0 mg/kg/injection, schedule: Q01DX009 (ip), vehicle: Klucel (hydroxypropylcellulose) (HPC)) 94 % of control; under setting [13], 98 % of control.
With `O=C/C=C/c1cccc([N+](=O)[O-])c1`, the T/C runs as follows: under setting [4], 107 % of control; under setting [5], 116 % of control; under setting [6], 118 % of control; under setting [12], 124 % of control.
With `C/C1=C/C(C)C(O)C(O)C(=O)C2(C)CNC3=C(O2)C(=O)c2c(cc(C)c(O)c2C1=O)C3=O` (stereo unspecified), the T/C runs as follows: (dose: 4.0 mg/kg/injection, schedule: Q01DX009 (ip), vehicle: distilled water + Tween-80) 103 % of control; (dose: 8.0 mg/kg/injection, schedule: Q01DX009 (ip), vehicle: distilled water + Tween-80) 100 % of control; (dose: 16.0 mg/kg/injection, schedule: Q01DX009 (ip), vehicle: distilled water + Tween-80) 105 % of control; (dose: 32.0 mg/kg/injection, schedule: Q01DX009 (ip), vehicle: distilled water + Tween-80) 103 % of control.
Take `c1ccc2sc(SSN3CC4CCC(CC4)C3)nc2c1`: the T/C under setting [3] is 95 % of control and 108 % of control; the T/C under setting [4] was 93 % of control and 102 % of control; the T/C under setting [5] is 87 % of control and 102 % of control; the T/C under setting [6] was 97 % of control; the T/C under setting [12] is 87 % of control; the T/C (dose: 400.0 mg/kg/injection, schedule: Q01DX009 (ip), vehicle: saline with Tween-80) is 88 % of control.
`O=S(=O)(O)c1cc(N=C=S)ccc1/C=C/c1ccc(N=C=S)cc1S(=O)(=O)O`: the T/C (dose: 12.5 mg/kg/injection, schedule: Q01DX009 (ip), vehicle: saline) is 96 % of control; the T/C under setting [8] was 95 % of control; the T/C under setting [9] was 91 % of control; the T/C under setting [10] was 86 % of control.
As to `CCSc1ncnc2c1ncn2C1OC(CO)C(O)C1O` (stereo unspecified), the T/C is 93 % of control under setting [5] and 95 % of control under setting [6].
On to `Clc1ccc2nnnn2n1`, for which the T/C by setting is: under setting [3], 95 % of control; under setting [4], 105 % of control; under setting [5], 108 % of control and 116 % of control and 123 % of control; under setting [6], 111 % of control; under setting [12], 167 % of control.
On to `CO[C@@]12[C@@H]3N[C@@H]3CN1C1=C(C(=O)C(NCC3CCCO3)=C(C)C1=O)[C@@H]2COC(N)=O` (stereo partly specified), for which the T/C is, setting by setting: (dose: 1.5 mg/kg/injection, schedule: Q04DX003 (ip), vehicle: distilled water + Tween-80) 179 % of control; (dose: 3.0 mg/kg/injection, schedule: Q04DX003 (ip), vehicle: distilled water + Tween-80) 172 % of control and 173 % of control and 178 % of control; (dose: 6.0 mg/kg/injection, schedule: Q04DX003 (ip), vehicle: distilled water + Tween-80) 179 % of control and 207 % of control and 208 % of control; (dose: 12.0 mg/kg/injection, schedule: Q04DX003 (ip), vehicle: distilled water + Tween-80) 185 % of control and 223 % of control and 240 % of control; (dose: 24.0 mg/kg/injection, schedule: Q04DX003 (ip), vehicle: distilled water + Tween-80) 174 % of control and 258 % of control and 326 % of control.
For the compound `N#Cc1ccc(NC(=O)Nc2nccs2)cc1`, for the setting “dose: 100.0 mg/kg/injection, schedule: Q01DX009 (ip), vehicle: distilled water + Tween-80”, the T/C was 150 % of control.
As to `Cc1ccc(C(=Nc2ccccc2)N=P(c2ccccc2)(c2ccccc2)c2ccccc2)cc1`, the T/C under setting [3] is 94 % of control, the T/C under setting [4] is 114 % of control and the T/C under setting [5] is 99 % of control.
Take `CC1(C)CC1(Br)Br`: the T/C is 100 % of control under setting [7]; 93 % of control under setting [3]; 104 % of control under setting [4]; 97 % of control under setting [5]; 100 % of control under setting [6]; 92 % of control under setting [12].
As for `ClC1=C(Cl)C2(Cl)C3C(Cl)C(Cl)CC3C1(Cl)C2(Cl)Cl` (stereo unspecified), the T/C reads like this: under setting [1], 106 % of control; under setting [2], 98 % of control; under setting [7], 101 % of control; under setting [3], 97 % of control; (dose: 25.0 mg/kg/injection, schedule: Q01DX009 (ip), vehicle: other) 95 % of control; under setting [4], 87 % of control. Also, the T/C (dose: 50.0 mg/kg/injection, schedule: Q01DX009 (ip), vehicle: other) is 106 % of control and the T/C (dose: 100.0 mg/kg/injection, schedule: Q01DX009 (ip), vehicle: other) was 97 % of control.
For the compound `O=c1[nH]cnc2c1nnn2C1OC(CO)C(O)C1O` (stereo unspecified), the T/C reads like this: under setting [8], 96 % of control and 101 % of control; under setting [9], 116 % of control and 92 % of control; under setting [10], 104 % of control; under setting [11], 100 % of control.
